Test systems include BT-549 breast; DU-145 prostate; HCC-2998 colon; HOP-92 NSCLC; IGROV1 ovarian; NCI/ADR-RES ovarian; OVCAR-8 ovarian; SF-268 CNS; UO-31 renal; KM12 colon.
Assay in all cases: NCI-60 cell line screen, 48 h

The text below walks through data of PubChem BioAssay (NCI).

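In this assay, cells in 96-well plates receive the compound at five concentrations for 48 hours. Endpoints are linearly interpolated between the surrounding concentrations. TGI: concentration producing complete growth inhibition.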 *1 amine or outer side, *2 acyl side, *3 side chain or, on linkers, in order; H or OH if unused. Where a SMILES comes first, the peptide text is derived from it. Bridges are numbered along the chain shown (N, C = ends). Roman numbers before positions name the chains, in order. [ ]: non-standard residue; d: D form. Actinocin(9to1) = Cc1c2oc3c(C)ccc(C(=O)[*:1])c3nc-2c(C(=O)[*:2])c(N)c1=O; NMeV = CN[CH](C(=O)O)C(C)C; Sar = CNCC(=O)O Where only a bound is given, the exact number is not on record here.

In the case of `Cc1cn(CC2=NCC(C)(C)N2)c(=O)[nH]c1=O`, the TGI with BT-549 breast, in the assay with DU-145 prostate, in the assay on HCC-2998 colon, in the assay with HOP-92 NSCLC, in the assay on IGROV1 ovarian and in the assay with NCI/ADR-RES ovarian was above 100 µM each time. Moreover, the TGI with OVCAR-8 ovarian, with SF-268 CNS and in the assay with UO-31 renal was above 100 µM in each case.

With `COC(=O)/C=C1\CCC(C)(C(=O)NS(=O)(=O)c2ccc(C)cc2)C1(C)C` (configuration not stated), the TGI in the assay on BT-549 breast, with DU-145 prostate, in the assay on HCC-2998 colon, in the assay on HOP-92 NSCLC, in the assay on IGROV1 ovarian and with KM12 colon was above 100 µM each time. The TGI in the assay on NCI/ADR-RES ovarian, with OVCAR-8 ovarian, in the assay with SF-268 CNS and in the assay with UO-31 renal was above 100 µM in each case.

Regarding `CN(C)Cc1cc(O)c(O)c(CN(C)C)c1`, the TGI in the assay with BT-549 breast was above 100 µM; with DU-145 prostate, above 100 µM; in the assay with HCC-2998 colon, 81.8 µM; in the assay on HOP-92 NSCLC, above 100 µM; in the assay with IGROV1 ovarian, above 100 µM; in the assay with KM12 colon, above 100 µM. The TGI in the assay with NCI/ADR-RES ovarian is 65.9 µM; in the assay on OVCAR-8 ovarian, above 100 µM; in the assay on SF-268 CNS, above 100 µM; with UO-31 renal it was above 100 µM.

`Cc1ccc(C(C2C(=O)N(C)C(=O)N(C)C2=O)C(F)(F)C(=O)N(C)C)cc1` (configuration not stated): the TGI in the assay with BT-549 breast, with DU-145 prostate, in the assay on HCC-2998 colon, with HOP-92 NSCLC, in the assay with KM12 colon and in the assay on NCI/ADR-RES ovarian was above 100 µM throughout. Moreover, the TGI in the assay with OVCAR-8 ovarian, in the assay on SF-268 CNS and with UO-31 renal was above 100 µM in each case.

In the case of `CCCCCCCCCCCCCCCCCCNc1ccn(C2OC(COP(=O)(O)OCC3OC(n4cc(C)c(=O)[nH]c4=O)CC3N=[N+]=[N-])C(O)C2O)c(=O)n1` (configuration not stated), the TGI in the assay on BT-549 breast is 49.2 µM; in the assay on DU-145 prostate, above 100 µM; in the assay with HCC-2998 colon, 29.9 µM; with HOP-92 NSCLC, above 100 µM; with IGROV1 ovarian it was 42.5 µM; in the assay with KM12 colon, 35 µM. The TGI with NCI/ADR-RES ovarian was 50 µM; with OVCAR-8 ovarian, 48.8 µM; in the assay on SF-268 CNS, 43.6 µM; with UO-31 renal, 58.8 µM.

For `Cc1ccc(N2CCc3c(C)c(C#N)c4nc5ccccc5n4c32)cc1`, the TGI with BT-549 breast is above 100 µM; with DU-145 prostate, above 100 µM; with HCC-2998 colon, above 100 µM; with HOP-92 NSCLC it was 57.5 µM; in the assay on IGROV1 ovarian it was above 100 µM; in the assay on NCI/ADR-RES ovarian it was above 100 µM. The TGI with OVCAR-8 ovarian, in the assay on SF-268 CNS and in the assay with UO-31 renal was above 100 µM each time.

On to `C=CCNC(=O)NC1=CSC2=NC(=O)C3(NN12)c1ccccc1-c1ccccc13`, for which the TGI in the assay with BT-549 breast, in the assay with DU-145 prostate, in the assay with HCC-2998 colon, in the assay with HOP-92 NSCLC, in the assay with IGROV1 ovarian and in the assay with KM12 colon was above 10 µM in each case. In addition, the TGI in the assay on NCI/ADR-RES ovarian, in the assay on OVCAR-8 ovarian, in the assay with SF-268 CNS and in the assay with UO-31 renal was above 10 µM in each case.

Consider `Cc1cc(-c2nc3ccccc3s2)ccc1NC(=O)[C@H](C)N`, for which the TGI was determined as 31.2 µM in the assay on BT-549 breast; 29 µM with DU-145 prostate; 23.9 µM with HCC-2998 colon; 35.5 µM in the assay on HOP-92 NSCLC; 23.4 µM with IGROV1 ovarian; 31.1 µM in the assay with KM12 colon. Besides, the TGI with NCI/ADR-RES ovarian stood at 38.5 µM; in the assay on OVCAR-8 ovarian, 37.4 µM; with SF-268 CNS, 52.5 µM; with UO-31 renal, 19.1 µM.

Consider `O=C(OCc1ccccc1)C1(N2CN(C3(C(=O)OCc4ccccc4)CCCC3)CN(C3(C(=O)OCc4ccccc4)CCCC3)C2)CCCC1`, for which the TGI in the assay with BT-549 breast, in the assay on DU-145 prostate, in the assay with HCC-2998 colon, in the assay on HOP-92 NSCLC, in the assay on IGROV1 ovarian and in the assay with KM12 colon was above 10 µM in each case. Also, the TGI with NCI/ADR-RES ovarian, with OVCAR-8 ovarian, with SF-268 CNS and in the assay with UO-31 renal was above 10 µM throughout.

Consider `C=C(CC[C@@H](C(=O)O)[C@H]1[C@H](O)C[C@@]2(C)C3=CC[C@@H](C(=C)C)[C@](C)(CCC(=O)O)C3=CC[C@]12C)C(C)C`, for which the TGI in the assay with BT-549 breast was determined as 33 µM; with DU-145 prostate it was 38.9 µM; in the assay with HCC-2998 colon, 32.4 µM; with HOP-92 NSCLC, 33.7 µM; in the assay on KM12 colon, 32.6 µM; in the assay on NCI/ADR-RES ovarian it was 42.3 µM. Further, the values for the TGI in the assay with OVCAR-8 ovarian and with UO-31 renal were 39.9 µM and 31.5 µM, respectively.

As for `COc1ccc(N=N/C(=N/NC(=O)c2ccccc2)c2ccc(N(CCC#N)CCC#N)cc2C)cc1`, the TGI with BT-549 breast, with DU-145 prostate, with HCC-2998 colon, with IGROV1 ovarian, with KM12 colon and in the assay on NCI/ADR-RES ovarian was above 100 µM throughout. Further, the TGI in the assay with OVCAR-8 ovarian, in the assay on SF-268 CNS and in the assay with UO-31 renal was above 100 µM in each case.

As to `Cc1c2oc3c(C)ccc(C(=O)NC4C(=O)NC(C(C)O)C(=O)N5CCCC5C(=O)N(C)CC(=O)N(C)C(C(C)C)C(=O)OC4C)c3nc-2c(C(=O)NC2C(=O)NC(C(C)O)C(=O)N3CCCC3C(=O)N(C)CC(=O)N(C)C(C(C)C)C(=O)OC2C)c(N)c1=O` (configuration not stated) (I: TTP[Sar][NMeV] / II: TTP[Sar][NMeV]; ester I:1-I:C, II:1-II:C; linker I:N-II:N via Actinocin(9to1); configuration not given here), the TGI is 1.03 µM with BT-549 breast; above 100 µM with DU-145 prostate; above 30.3 µM in the assay with HCC-2998 colon; above 100 µM in the assay with IGROV1 ovarian; above 30.1 µM in the assay on KM12 colon; above 100 µM in the assay with NCI/ADR-RES ovarian. The TGI was above 82.4 µM with OVCAR-8 ovarian, above 100 µM with SF-268 CNS and 19.6 µM with UO-31 renal.

As for `O=c1cc(N2CCCC2)[nH]c(=O)n1-c1cccc(C(F)(F)F)c1`, the TGI in the assay with BT-549 breast, in the assay with DU-145 prostate, in the assay with HCC-2998 colon, in the assay with HOP-92 NSCLC, in the assay on IGROV1 ovarian and with KM12 colon was above 100 µM in each case. Also, the TGI in the assay on NCI/ADR-RES ovarian, in the assay on OVCAR-8 ovarian and in the assay with SF-268 CNS was above 100 µM in each case.
